# Experimental data as given in patent US12544371B2, “Methods and compositions for treating acute lung injury and acute respiratory distress syndrome” (CalciMedica, Inc., priority 2020, dated 2026).
# Read-outs that look alike come from different tables or passages of the source.
# What was measured:
# [1] = test system: IL-2 release by human CD4+ T cells; assay: IL-2 release by human CD4+ T cells, isolated cell assay; type: cell-based; conditions: SEM (n), read-out: Compound 1 IC50, IL-2 release by human CD4+ T cells
# From the text: (§1) CRAC channels may play a proximal role in a calcium-calcineurin pathway leading to cytokine release in immune cells.
# [2] = test system: IFNγ released from human PBMCs; assay: Cytokine released from human PBMCs: IFNγ; type: cell-based
# From the text: as §1
# [3] = test system: IL-10 released from human PBMCs; assay: Cytokine released from human PBMCs: IL-10; type: cell-based; conditions: PBMC, mean of replicates
# From the text: as §1
# [4] = test system: TNFα released from human PBMCs; assay: Cytokine released from human PBMCs: TNFα; type: cell-based
# From the text: as §1
# [5] = Cardiovascular safety in telemetered cynomolgus monkey; type: in vivo
# From the text: Compound 1 is a non-limiting example of a composition described herein that inhibits calcium release-activated calcium (CRAC) channels).
# [6] = Repeat-dose toxicity study in rats; type: in vivo; conditions: rat
# [7] = test system: bacterial reverse mutation; assay: Ames bacterial reverse mutation assay; type: cell-based; conditions: in vitro
# [8] = test system: human peripheral blood lymphocytes; assay: In vitro micronucleus assay; type: cell-based
# [9] = test system: human blood and plasma; assay: Hemolysis testing
# From the text: Hemolysis testing concluded that Compound 1 was compatible with human plasma and non-hemolytic in human blood.
# [10] = test system: 3T3; assay: In vitro 3T3 phototoxicity; type: cell-based
# [11] = Mouse caerulein-induced pancreatitis model; type: in vivo; conditions: single IP dose
# From the text: (§2) Potential efficacy of Compound 1 in treating acute lung injury was established in three diverse in vivo models of AP that cause both pancreatic damage and lung inflammation (TLCS-induced, FAEE-induced, and caerulein-induced acute pancreatitis models).
# [12] = Mouse TLCS-induced and FAEE-induced pancreatitis models; type: in vivo
# From the text: as §2
# [13] = Phase 2 open-label study in acute pancreatitis with SIRS and hypoxemia (Compound 1 Test 201); type: in vivo, human
# Procedure: A Phase 2, open-label, dose-response, multi-center study of Compound 1 was conducted in patients with AP and accompanying SIRS and hypoxemia (Compound 1 Test 201). One patient was randomized having SIRS alone at Screening. The primary objective of the study was to evaluate safety and tolerability; the secondary objective was to evaluate efficacy and the PK profile of Compound 1.
# The study had 2 phases; the Initial Phase consisted of 2 concurrently enrolled cohorts and the Second Phase consisted of 2 concurrently enrolled cohorts. In total, it was planned to have 4 Cohorts containing 24 adult male and female patients with AP and accompanying SIRS and hypoxemia. In the Initial Phase, 4 female patients were to be randomized in a 3:1 ratio to receive Compound 1+Supportive Care (SC) or SC alone (Cohort 1). Concurrently, 4 male patients were to be randomized in a 3:1 ratio to receive Compound 1+SC or SC alone (Cohort 2). Doses were to be 1.0 mg/kg on Day 1 and 1.4 mg/kg daily on Days 2, 3 and 4 (low dose regimen). In the Second Phase, 8 female patients were to be randomized in a 3:1 ratio to receive Compound 1+SC or SC alone (Cohort 3). Concurrently, 8 male patients were to be randomized in a 3:1 ratio to receive Compound 1+SC or SC alone (Cohort 4). Planned doses for both Cohorts 3 and 4 were to be 2.08 mg/kg daily on Days 1 and 2 and 1.6 mg/kg daily on Days 3 and 4 (high dose regimen).
# The decision to start Cohort 3 in the Second Phase was made after study personnel reviewed the available efficacy, safety and tolerability data from Cohort 1 and discussed this with the Principal Investigator (PI). […] Cohort 3, therefore, received the same dose level and schedule as Cohort 1, […] on Day 1 and 1.4 mg/kg daily on Days 2, 3 and 4. The decision to start Cohort 4 in the Second Phase of the study was made after study personnel reviewed the available efficacy, safety and tolerability data from Cohort 2 and discussed this with the Principal Investigator. Cohort 4, therefore, received the original planned dose level and schedule; 2.08 mg/kg daily on Days 1 and 2 and 1.6 mg/kg daily on Days 3 and 4.
# The first infusion of Compound 1 was started within 6 (up to 8) hours of the patient or LAR providing informed consent and was administered as a continuous IV infusion over 4 hours. Subsequent infusions were to be started every 24 hours (±1 hour) from the start of the first infusion.
# [14] = Animal models of acute pancreatitis and lung injury (general statements); type: in vivo
# From the text: Preclinical data supports the use of CRAC inhibitors (e.g. N-(5-(6-Chloro-2,2-difluorobenzo[d][1,3]dioxol-5-yl)pyrazin-2-yl)-2-fluoro-6-methylbenzamide, Compound 1) in severe COVID-19 pneumonia.
# For example, Compound 1 was effective following i.p. injection in mice (Wen et al., Gastroenterol, 149: 481-492, 2015), and following 4-hour i.v. infusion in rats (Waldron et al., J Physiol, 597.12: 3085-3105, 2019).
smiles,measurement,setting,value
"Cc1cccc(F)c1C(=O)Nc1cnc(-c2cc3c(cc2Cl)OC(F)(F)O3)cn1 [Compound 1, N-(5-(6-Chloro-2,2-difluorobenzo[d][1,3]dioxol-5-yl)pyrazin-2-yl)-2-fluoro-6-methylbenzamide]",IC50,[1],4 ± 0.5 nM
same,IC50,"[2]; Homo sapiens, PBMC, mean of replicates, read-out: Mean IC50, IFNγ released from human PBMCs",138 nM
same,IC50,"[2]; Homo sapiens, PBMC, single replicates, read-out: Replicate IC50 values, IFNγ released from human PBMCs",175 nM
same,IC50,"[2]; single replicates, read-out: Replicate IC50 values, IFNγ released from human PBMCs",102 nM
same,IC50,[3],303 nM
same,IC50,"[4]; Homo sapiens, PBMC, mean of replicates, read-out: Mean IC50, TNFα released from human PBMCs",225 nM
same,IC50,"[4]; Homo sapiens, PBMC, single replicates, read-out: Replicate IC50 values, TNFα released from human PBMCs",278 nM
same,IC50,"[4]; single replicates, read-out: Replicate IC50 values, TNFα released from human PBMCs",173 nM
same,cardiovascular data at lower doses,"[5]; 1, 3 and 10 mg/kg, also seen in placebo treated animals","transient, non-dose-related, slight-to-moderate increases in systolic/diastolic arterial blood pressures and negative chronotropic effects (mild and non-adverse)"
same,clinical and cardiovascular effects,"[5]; single telemetered cynomolgus monkey, 25 mg/kg IV",Dose-limiting adverse clinical and cardiovascular effects
same,NOAEL,"[6]; in vivo, repeat-dose, rats, read-out: no observable adverse effect level (NOAEL)",25 mg/kg/day
same,local irritation at the injection site,[6]; repeat-dose toxicity study,no evidence of compound-related or vehicle-related local irritation
same,Ames bacterial reverse mutation assay result,[7],negative
same,micronucleus assay result,[8],weakly positive/equivocal
same,compatibility with human plasma,[9],compatible
same,hemolysis in human blood,[9],non-hemolytic
same,"phototoxicity, in vitro 3T3",[10],potentially phototoxic
same,"lung myeloperoxidase; pancreas trypsin activity, myeloperoxidase activity and histopathological indices",[11],markedly reduced
same,effect of timing of administration on minimizing pancreatic injury,"[12]; administered early in the course of disease, later administration retains effectiveness",may be more effective
same,"lung myeloperoxidase; pancreas trypsin activity, myeloperoxidase activity and histopathological indices","[12]; mouse TLCS-induced and FAEE-induced pancreatitis, two IP doses",markedly reduced
same,"Discharge IL-6 levels, patients with 150 pg/mL ≤ IL-6 < 1000 pg/mL","[13]; 2a High Dose Regimen + SC, admission 1",1
same,"Discharge IL-6 levels, patients with IL-6 ≥ 1000 pg/mL","[13]; 2a High Dose Regimen + SC, admission 2",0
same,"Discharge IL-6 levels, patients with IL-6 ≥ 1000 pg/mL","[13]; 2a Low Dose Regimen + SC, admission 0",0
same,"Discharge IL-6 levels, patients with 150 pg/mL ≤ IL-6 < 1000 pg/mL","[13]; 2a Low Dose Regimen + SC, admission 4",0
same,patients in whom IL-6 levels decreased to below 150 pg/mL,"[13]; Tests 201 and 202 pooled, maximum IL-6 ≥150 pg/mL in the first 24 hours",7 of 8
same,procalcitonin at discharge,[13]; first critically ill AP patient,0.24 ng/mL
same,IL-6 at 120 hrs,"[13]; first critically ill AP patient, IL-6 >7296 pg/mL at study entry",66 pg/mL
same,TEAEs with causality considered Possible (Chromaturia),[13]; high dose regimen+SC,1 TEAE
same,patients with SAEs,"[13]; high dose regimen+SC, 1 of 6",17%
same,patients with Acute Respiratory Distress Syndrome,"[13]; high dose regimen+SC, 2 of 6",33%
same,patients with Confusional State,"[13]; high dose regimen+SC, 2 of 6",33%
same,patients with Malnutrition,"[13]; high dose regimen+SC, 2 of 6",33%
same,patients with severe TEAEs,"[13]; high dose regimen+SC, 2 of 6",33%
same,patients with treatment-emergent AEs (TEAEs),"[13]; high dose regimen+SC, 5 of 6 patients",83%
same,patients with TEAEs leading to discontinuation of the study drug,"[13]; high dose regimen+SC, 3 TEAEs",2 patients
same,deaths during the study,"[13]; high dose regimen+SC, Hypoxic-Ischemic Encephalopathy, causality Unrelated",1 death
same,IL-6 levels in patients,[13]; in vivo,marked reduction
same,respiratory dysfunction in patients,[13]; in vivo,beneficial effects
same,safety in critically ill patients,"[13]; intravenous, 90 days in patients with AP, SIRS plus hypoxemia",safe
same,"changes in vital signs, oxygenation, and laboratory values",[13]; low dose or high dose regimen,no untoward changes
same,safety and tolerability,[13]; low dose regimen+SC and high dose regimen+SC,well tolerated
same,patients with severe TEAEs,"[13]; low dose regimen+SC, 0 of 8",0%
same,patients with Headache,"[13]; low dose regimen+SC, 2 of 8",25%
same,patients with Hypokalemia,"[13]; low dose regimen+SC, 2 of 8",25%
same,patients with SAEs,"[13]; low dose regimen+SC, 2 of 8",25%
same,patients with treatment-emergent AEs (TEAEs),"[13]; low dose regimen+SC, 7 of 8 patients",88%
same,procalcitonin levels versus the standard of care,[13]; phase 2a study patients,did not increase
same,procalcitonin at discharge,[13]; second critically ill AP patient,0.30 ng/mL
same,IL-6 at 120 hrs,"[13]; second critically ill AP patient, IL-6 1021 pg/mL at study entry",83 pg/mL
same,cytokines and neutrophil infiltration in lung tissue,[14],inhibit
